Reference: US20210108198A1, “APPLICATION OF COMPOUND OR TRADITIONAL CHINESE MEDICINE EXTRACT IN PREPARATION OF NUCLEIC ACID DELIVERY AGENT AND RELATED PRODUCTS THEREOF” (INSTITUTE OF BASIC MEDICAL SCIENCES CHINESE ACADEMY OF …, priority 2017, published 2021)
“Also recorded” adds a separate entry of the source.

Tests used:
MRC-5 cell = assay: RT-qPCR detection of nucleic acid delivered by lipid into MRC-5 cells; assay type: cell-based; settings: RNA 100 nM
Experimental: 3.1 NCI-N87 cell (gastric cancer cell), MRC-5 cell (lung fibroblast), A549 cell (lung cancer cell) were cultured to logarithmic growth phase, and then plated to a six-well plate at cell density of 1×10^6/2 mL medium/well; MRC-5 cell was cultured in Eagle's MEM medium (MEM, Gibco); A549 cell was cultured in Ham's F-12 medium (HyClone); NCI-N87 cell was cultured in RPMI-1640 medium (HyClone); followed by incubation overnight at 37° C., and the follow-up experiments were performed after the cells were attached to the walls.
3.3 After co-incubation with the small RNA for 3 hours, the cells were washed 2-3 times with PBS. The cells were harvested with TRIzol lysis buffer, and the total RNA was extracted. The abundance of small RNA that entered cells was detected by RT-qPCR, and the localization of RNA was detected by fluorescence in situ hybridization; protocols of each detection method were as follows:
3.3.2 RT-qPCR Detection of Small RNA (SYBR Green Dye Method)
The stem-loop primer used in the reverse transcription process was synthesized by Beijing Tsingke Biotechnology Co., Ltd. (U6 RT primer: […] ATG (SEQ ID NO: 21); HJT-sRNA-m7 RT stem-loop primer: […] AA (SEQ ID NO: 22)).
Both the forward and reverse primers of the amplification reaction were designed and synthesized by Beijing Tsingke Biotechnology Co., Ltd. (U6 F Primer: […] (SEQ ID NO: 23), U6 R Primer: […] (SEQ ID NO: 24), HJT-sRNA-m7 F Primer: […] (SEQ ID NO: 25), HJT-sRNA-m7 R Primer: […] (SEQ ID NO: 26)).
3) The relative expression level was calculated by 2-ΔCt method.
3.1.3 After co-incubation with cells for 12-24 hours, the cells were washed twice with PBS. The cells were harvested with TRIzol lysis buffer (purchased from Sigma-Aldrich), and total RNA was extracted.

[1] = In vivo delivery of single-stranded sRNA by single lipid via gavage (blood, stomach, small intestine, liver); set-up: species or system C57 mice; settings: 10 μl lipid, heating method
Text: Tissues sampled: live/stomach/small intestine.

A549 cells [2] = assay: Flow cytometry detection of the efficiency of nucleic acid delivery by lipid; assay type: cell-based, human; settings: PGY-sRNA-6-FAM, boiling method
Experimental: Experimental materials: A549 cells (purchased from the Cell Center of the Chinese Academy of Medical Sciences), FAM-sRNA (purchased from Ribobio Biotechnology Co., Ltd.), lipid No. 41, Accuri® C6 instrument (purchased from BD, USA).
Experimental methods: PGY-sRNA-6-FAM was dissolved in 100 μl water, mixed with 4 μl lipid, and prepared by boiling method. Then the mixture was dropped into A549 cells, and after 6 hours of co-incubation, the samples were collected for detection as follows: firstly wash three times with PBS, then digest with trypsin for 3 minutes and remove trypsin, wash with PBS again and then blow down the cells. The detection was performed using Accuri® C6 instrument.
Experimental Method: PGY-sRNA-6-FAM was dissolved in 100 μl water, and mixed with 4 μl lipid, and prepared into lipid-sRNA mixture by boiling method. Then, the mixture was dropped into A549 cells, and after 6 hours of co-incubation, the samples were collected and washed three times with PBS, then digested with trypsin into single cells, washed with re-suspended with PBS and then blown down for Accuri® C6 instrument detection.
Experimental Method: FAM-sRNA was dissolved in 100 μl water, and mixed with 4 μl lipid, prepared by boiling method. Then, the lipid-sRNA mixture was dropped into A549 cells, and after 6 hours of co-incubation, the samples were collected and washed three times with PBS, then digested into single cells with trypsin, re-suspended with PBS and then blown down for Accuri® C6 instrument detection.

A549 cells [3] = assay: Digital PCR (ddPCR) detection of the efficiency of nucleic acid delivery by lipid; assay type: cell-based, human
Experimental: (§1) 2.2 Experimental method: the total cellular RNA was collected and extracted by TRIzol lysis buffer according to the above methods, and reverse transcribed to cDNA using High capacity cRNA Reverse Transcription Kit, and the cDNA from different groups was subject to digital PCR reaction. Refering to the QX200 Droplet Reader and QuantaSoft Software manual for the protocols, the results were analyzed using QuantaSoft software.
as §1, with “method:” for “method: the”, “total” for “total cellular”, “method,” for “methods,”, “subjected” for “subject”, “Refer” for “Refering”, “protocols;” for “protocols,”
(§2) 2.2 Experimental method: Total RNA was collected and extracted by TRIzol lysis buffer according to the above method, and reverse transcribed to cDNA using TaqMan™ MicroRNA Reverse Transcription KitHigh, and the cDNA from different groups was subjected to digital PCR reaction. Refer to the QX200 Droplet Reader and QuantaSoft Software manual for the protocols; the results were analyzed using QuantaSoft software.
as §2, with “reversed” for “reverse transcribed”, “High capacity cRNA” for “TaqMan™ MicroRNA”, “Kit,” for “KitHigh,”

[4] = 4 μl lipid, 6 hours of co-incubation

CCCCCCCCCCCCCCCCCCC[C@@H](O)[C@@H](N)CO [No. 41, Sphinganine (d22:0)]
delivery of double-stranded HJT-sRNA-m7 by single lipid (real-time PCR) (MRC-5 cell; boiling (heating) method): delivered HJT-sRNA-m7 double-stranded RNA into MRC-5 cells
delivery of single-stranded HJT-sRNA-m7 by single lipid (real-time PCR) (MRC-5 cell; boiling (heating) method, 12 hours (No. 37: 3 hours)): delivered HJT-sRNA-m7 single-stranded RNA into A549 and MRC-5 cells
delivery of double-stranded HJT-sRNA-m7 by single lipid (real-time PCR) (MRC-5 cell; reverse evaporation method): delivered HJT-sRNA-m7 double-stranded RNA into MRC-5 cells; also recorded: significantly higher than that of RNAiMAX
entry of single-stranded small RNA into mouse blood (RT-qPCR) ([1]; 1 nmol each sRNA (PGY-sRNA-23/-26/-32), 6 hours or 12 hours after administration): could promote the entry of small RNA into the blood, protecting it from degradation in the blood; also recorded: could effectively deliver sRNA single-stranded nucleic acid into the mouse blood via oral administration to protect sRNA from degradation; also recorded: the delivery effect was better than POPC and Lipofectamine RNAiMAX
entry of single-stranded small RNA into mouse stomach (RT-qPCR) ([1]; 1 nmol each sRNA, FIG. 109): could promote the entry of small RNA into the stomach cells, protecting it from degradation in the stomach; also recorded: could effectively deliver sRNA single-stranded nucleic acid into the mouse stomach via oral administration to protect sRNA from degradation
entry of single-stranded small RNA into mouse small intestine (RT-qPCR) ([1]; 1 nmol each sRNA, FIG. 110): could promote the entry of small RNA into small intestinal cells, protecting it from degradation in the small intestine; also recorded: could effectively deliver sRNA single-stranded nucleic acid into the mouse small intestine via oral administration to protect sRNA from degradation
entry of single-stranded small RNA into mouse liver (RT-qPCR) ([1]; 1 nmol each sRNA, FIG. 111): could promote the entry of small RNA into the liver, protecting it from degradation in the liver; also recorded: could effectively deliver sRNA single-stranded nucleic acid into the mouse liver via oral administration to protect sRNA from degradation
efficiency in delivering PGY-sRNA-6 double-stranded RNA (flow cytometry) (A549 cells [2]; [4]): 96.7%
efficiency in delivering PGY-sRNA-6 single-stranded RNA (flow cytometry) (A549 cells [2]; [4]): 94.1%
efficiency of nucleic acid delivery by flow cytometry, in words (A549 cells [2]; 6 hours): could efficiently deliver single-stranded and double-stranded nucleic acids into A549 cells
delivery of HJT-sRNA-m7 dsRNA (ddPCR) (A549 cells [3]; boiling method, 6 hours): could effectively deliver HJT-sRNA-m7 dsRNA into A549 cells; also recorded: the boiling method had better effects than reverse evaporation method
delivery of HJT-sRNA-m7 dsRNA (ddPCR) (A549 cells [3]; reverse evaporation method, 6 hours (No. 39: 6 hours, 12 hours)): could effectively deliver HJT-sRNA-m7 dsRNA into A549 cells
